Test results published in US7598340B2, “Monoclonal antibody to a human MDR1 multidrug resistance gene product, and uses” (The Board of Trustees of the University of Illinois, priority 1992, dated 2009).

How the values were obtained:
[1] = tested on: BALB/c 3T3-1000 cells; test: Cell growth inhibition of BALB/c 3T3-1000 cells by vinblastine with mAb or verapamil; format: cell-based, mouse; details: 350 ng/ml vinblastine
[2] = tested on: BALB/c 3T3-1000 fibroblasts; test: Colony formation by BALB/c 3T3-1000 fibroblasts in the presence of vinblastine; format: cell-based, mouse; details: BALB/c 3T3-1000 cell line
Experimental: The effects of antibody preparations of the invention on drug cytotoxicity may be assessed by incubating suspensions of MDR and control cells with the antibody preparation, then testing for cell growth inhibition by colony formation, plating efficiency, and/or MTT growth inhibition assay^13,16 in the absence and presence of an anti-cancer drug such as one of the vinca alkaloids. BALB/c 3T3-1000 fibroblasts are particularly suitable for plating efficiency assays and the MDR cell line K562/inf for the growth inhibition assay. The effects of antibody preparations on drug cytotoxicity may be assayed by incubating cell suspensions with a purified antibody preparation, and plating cells in microtitre plate wells for colony or growth inhibition assays in the presence of the antibody preparation.
All drugs were obtained from Sigma, except for G418 (Gibco) and taxol (gift of Dr. S. B. Horwitz). Colony formation and MTT assays for cell growth inhibition were carried out by art-recognized procedures. […]
In the system described in FIG. 3B, we examined the effects of different mAb on colony formation by BALB/c 3T3-1000 fibroblasts in the presence of vinblastine. […] Colonies were fixed with methanol or ethanol and stained with crystal violet on day 11, and scored for plating efficiency.

With `COc1ccc(CCN(C)CCCC(C#N)(c2ccc(OC)c(OC)c2)C(C)C)cc1OC` (centres unmarked) [Verapamil, verapamil] the “concentration achieving the same potentiation of vinblastine toxicity” value [1] was 3 µM.

For `CC[C@]1(O)C[C@@H]2CN(CCc3c([nH]c4ccccc34)[C@@](C(=O)OC)(c3cc4c(cc3OC)N(C)[C@H]3[C@@](O)(C(=O)OC)[C@H](OC(C)=O)[C@]5(CC)C=CCN6CC[C@]43[C@@H]65)C2)C1` [vinblastine], the ID90 of vinblastine [2] was 0.35 µg/mL.
